Experimental data reported in patent publication US20220389009A1, “SUBSTITUTED 1,6-NAPHTHYRIDINE INHIBITORS OF CDK5” (Goldfinch Bio, Inc., priority 2019, published 2022).

What was measured:
CDK2/CycA2 = CDK2/CycA2 (Homo sapiens, UniProt P24941); experiment: CDK2 mobility shift assay (enzymatic activity of CDK2/CycA2); type: biochemical; conditions: 1.25 nM CDK2/CycA2, 37 μM ATP, FL Peptide 18, 120 min at room temperature; read-out: CDK2 IC50
Method: (§1) Compound potency was measured via a change in the enzymatic activity of CDK5/p25, and optionally of CDK2/CycA2. Enzymes, CDK5/p25 and CDK2/CycA2, were sourced from Carna Biosciences (Cat #04-106 and 04-103, respectively). Test compound stocks were diluted in 100% DMSO and serially diluted 3-fold in a 384-well plate using a TECAN EVO200 (TECAN). Staurosporine was used as a reference control compound in all assays.
(§2) Twenty nL of compound were transferred into a 384-well plate (Greiner 781201) using an Echo550 (Labcyte Inc). Enzyme, ATP, and 10 mM MgCl2 were preincubated at room temperature with the compound in assay buffer (50 mM HEPES pH 7.5, 1 mM EGTA, 0.01% Brij-35, 0.05% BSA, 2 mM DTT) for 30 minutes. Peptide substrate (FL peptide 29 (Perkin Elmer) for CDK5/p25; FL Peptide 18 (Perkin Elmer) for CDK2/CycA2) was added to initiate the reaction. The final assay contained 0.154 nM CDK5/p25 or 1.25 nM CDK2/CycA2, […] (for CDK5/p25) or 37 μM (for CDK2/CycA2) ATP, and 1.5 μM of the appropriate peptide substrate. The final DMSO concentration was <1%.
(§3) The CDK5/p25 reaction was incubated at room temperature for 60 min. The CDK2/CycA2 reaction was incubated at room temperature for 120 min. The reactions were quenched by the addition of 70 μL stopping buffer containing 0.5 M EDTA. Samples were analyzed using the EZ Reader (Perkin Elmer).
(§4) The results were expressed as % vehicle, where % vehicle=100×(U−C2)/(C1−C2), where U is the signal of sample, C1 is the average of the high controls (signal with no compound added), and C2 is the average of low controls (signal with the buffer in place of enzyme). The ICso is determined by fitting the percentage of inhibition as a function of compound concentrations using a 4-parameter fit defined as follows.
(§5) Y=Bottom+(Top−Bottom)/(1+10^((LobIC50-X)*Hill Slope)), where X is the log of the compound concentration, Y is the % vehicle or response at X, Top and Bottom are the plateaus in the same units as Y, and the Hill's Slope is unitless, and the ICso is the half-maximal inhibitory concentration.

CDK5/p25 = CDK5/p25 (Homo sapiens, UniProt Q00535); experiment: CDK5 mobility shift assay (enzymatic activity of CDK5/p25); type: biochemical; conditions: for IC50: 0.154 nM CDK5/p25, FL peptide 29, 60 min at room temperature, read-out: CDK5 IC50; for CDK5/CDK2 specificity: fold more active against CDK5 than CDK2
Method: as §1, §2, §3, §4, §5

CDK5/p25, sequence (Q00535 whole entry): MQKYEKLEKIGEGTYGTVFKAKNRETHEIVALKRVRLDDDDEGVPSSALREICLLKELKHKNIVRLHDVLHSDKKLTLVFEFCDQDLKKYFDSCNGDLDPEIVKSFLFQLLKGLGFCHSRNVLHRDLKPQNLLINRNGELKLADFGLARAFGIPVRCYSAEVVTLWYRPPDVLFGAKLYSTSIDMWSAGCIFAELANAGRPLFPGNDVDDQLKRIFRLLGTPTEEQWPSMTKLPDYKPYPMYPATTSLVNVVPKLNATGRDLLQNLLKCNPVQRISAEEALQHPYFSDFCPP
CDK5/p25, sequence (Q15078 99-307 partner limits assumed): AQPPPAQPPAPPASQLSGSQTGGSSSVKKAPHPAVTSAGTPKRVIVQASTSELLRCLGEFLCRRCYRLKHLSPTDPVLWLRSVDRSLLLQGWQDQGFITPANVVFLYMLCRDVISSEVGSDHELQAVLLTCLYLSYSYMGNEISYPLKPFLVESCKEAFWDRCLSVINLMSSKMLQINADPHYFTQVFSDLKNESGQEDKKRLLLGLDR

| SMILES | IC50 (CDK2/CycA2) [nM] | IC50 (CDK5/p25) [nM] | CDK5/CDK2 specificity (CDK5/p25) |
| --- | --- | --- | --- |
| [O-][S@+](c1ccc2cnc(Nc3ccc(-n4cccn4)cc3F)cc2n1)C1CCNCC1 [Compound 117, N-[2-fluoro-4-(pyrazol-1-yl)phenyl]-2-[(S)-piperidine-4-sulfinyl]-1,6-naphthyridin-7-amine] | > 1000 | 100 to 1000 | + (10-fold or less more active against CDK5 than CDK2) |
| CN1CCC(NS(=O)(=O)c2ccc3cnc(Nc4ccc(-n5ccc(CO)n5)cc4F)cc3n2)CC1 [Compound 203, 7-([2-fluoro-4-[3-(hydroxymethyl)pyrazol-1-yl]phenyl]amino)-N-(1-methylpiperidin-4-yl)-1,6-naphthyridine-2-sulfonamide] | > 1000 | 100 to 1000 | + (10-fold or less more active against CDK5 than CDK2) |
| CN1CCC(S(=O)(=O)c2ccc3cnc(Nc4cccc(N5CCOCC5)c4)cc3n2)CC1 [Compound 273] | 100 to 1000 | < 10 | +++ (greater than 100-fold more active against CDK5 than CDK2) |
| CN1CCC(S(=O)(=O)c2ccc3cnc(Nc4cccc(N5CCNC5=O)c4)cc3n2)CC1 [Compound 285] | 10 to 100 | < 10 | ++ (greater than 10-fold and less than or equal to 100-fold more active against CDK5 than CDK2) |
| CN1CCC(S(=O)(=O)c2ccc3cnc(Nc4ccc(-n5cccn5)cc4F)cc3n2)CC1 [Compound 158, N-[2-fluoro-4-(pyrazol-1-yl)phenyl]-2-(1-methylpiperidin-4-ylsulfonyl)-1,6-naphthyridin-7-amine] | 100 to 1000 | < 10 | +++ (greater than 100-fold more active against CDK5 than CDK2) |
| CC(O)(c1ccc2cnc(Nc3ccc(-n4cccn4)cc3F)cc2n1)C1CCNCC1 (stereo not drawn) [Compound 196, 1-(7-[[2-fluoro-4-(pyrazol-1-yl)phenyl]amino]-1,6-naphthyridin-2-yl)-1-(piperidin-4-yl)ethanol] | 100 to 1000 | < 10 | ++ (greater than 10-fold and less than or equal to 100-fold more active against CDK5 than CDK2) |
| CN1CCC(S(=O)(=O)c2ccc3cnc(Nc4cccc(CN5CCOCC5)c4)cc3n2)CC1 [Compound 276] | 100 to 1000 | < 10 | ++ (greater than 10-fold and less than or equal to 100-fold more active against CDK5 than CDK2) |
| Fc1cc(-n2cccn2)ccc1Nc1cc2nc(SC3CCNCC3)ccc2cn1 [Compound 107, N-[2-fluoro-4-(pyrazol-1-yl)phenyl]-2-(piperidin-4-ylsulfanyl)-1,6-naphthyridin-7-amine] | 10 to 100 | < 10 | ++ (greater than 10-fold and less than or equal to 100-fold more active against CDK5 than CDK2) |
| CC(c1ccc2cnc(Nc3ccc(-c4cccnc4)cc3F)cc2n1)C1CCN(C)CC1 (stereo not drawn) [Compound 314] | > 1000 | 10 to 100 | ++ (greater than 10-fold and less than or equal to 100-fold more active against CDK5 than CDK2) |
| CN1CCC(S(=O)(=O)c2ccc3cnc(Nc4ccc(-n5cncn5)cc4)cc3n2)CC1 [Compound 279] | 100 to 1000 | < 10 | ++ (greater than 10-fold and less than or equal to 100-fold more active against CDK5 than CDK2) |
| COC(=O)c1cnn(-c2ccc(Nc3cc4nc(S(=O)(=O)C5CCN(C)CC5)ccc4cn3)c(F)c2)c1 [Compound 288] | > 1000 | < 10 | +++ (greater than 100-fold more active against CDK5 than CDK2) |
| COc1ccc(-c2ccc(Nc3cc4nc(C(C)C5CCN(C)CC5)ccc4cn3)c(F)c2)cc1 (stereo not drawn) [Compound 310] | > 1000 | 10 to 100 | ++ (greater than 10-fold and less than or equal to 100-fold more active against CDK5 than CDK2) |
| Cc1cc(C(=O)NC(C)C)ccc1Nc1cc2nc(S(=O)(=O)C3CCN(C)CC3)ccc2cn1 [Compound 265] | > 1000 | 10 to 100 | +++ (greater than 100-fold more active against CDK5 than CDK2) |
| COC(=O)CCc1nnc(Nc2cc3nc(S(=O)(=O)C4CCN(C)CC4)ccc3cn2)s1 [Compound 264] | > 1000 | > 1000 | + (10-fold or less more active against CDK5 than CDK2) |
| CN1CCC(S(=O)(=O)c2ccc3cnc(Nc4ccc(S(C)(=O)=O)cc4)cc3n2)CC1 [Compound 271] | 10 to 100 | < 10 | + (10-fold or less more active against CDK5 than CDK2) |
| CN1CCC(S(=O)(=O)c2ccc3cnc(Nc4ccc(Cn5cncn5)cc4)cc3n2)CC1 [Compound 263] | 10 to 100 | < 10 | ++ (greater than 10-fold and less than or equal to 100-fold more active against CDK5 than CDK2) |
| CN1CCC(S(=O)(=O)c2ccc3cnc(Nc4ccc5c(c4)C(=O)N(C)C5)cc3n2)CC1 [Compound 275] | 100 to 1000 | 10 to 100 | ++ (greater than 10-fold and less than or equal to 100-fold more active against CDK5 than CDK2) |
| OCc1ccn(-c2ccc(Nc3cc4nc(N(Cc5cn[nH]c5)C5CCNCC5)ccc4cn3)c(F)c2)n1 [Compound 287, [1-[3-fluoro-4-([2-[piperidin-4-yl(1H-pyrazol-4-ylmethyl)amino]-1,6-naphthyridin-7-yl]amino)phenyl]pyrazol-3-yl]methanol] | > 1000 | 10 to 100 | ++ (greater than 10-fold and less than or equal to 100-fold more active against CDK5 than CDK2) |

Second part, led by results:

| IC50 (CDK2/CycA2) [nM] | IC50 (CDK5/p25) [nM] | SMILES | CDK5/CDK2 specificity (CDK5/p25) |
| --- | --- | --- | --- |
| 100 to 1000 | < 10 | COc1ccc(-c2ccc(Nc3cc4nc(S(=O)(=O)C5CCN(CC6COC6)CC5)ccc4cn3)c(F)c2)cc1 [Compound 331] | ++ (greater than 10-fold and less than or equal to 100-fold more active against CDK5 than CDK2) |
| 10 to 100 | < 10 | CN1CCC(/C(=N\O)c2ccc3cnc(Nc4ccc(-n5cccn5)cc4F)cc3n2)CC1 [Compound 375] | ++ (greater than 10-fold and less than or equal to 100-fold more active against CDK5 than CDK2) |
| > 1000 | 10 to 100 | COc1cc(-c2ccc(Nc3cc4nc(C(C)C5CCN(C)CC5)ccc4cn3)c(F)c2)ccn1 (stereo not drawn) [Compound 339] | ++ (greater than 10-fold and less than or equal to 100-fold more active against CDK5 than CDK2) |
| 10 to 100 | < 10 | CN1CCC([C@@](C)(O)c2ccc3cnc(Nc4ccc(-c5cccc(C(N)=O)c5)cc4F)cc3n2)CC1 [Compound 364, (R)-3′-fluoro-4′-((2-(1-hydroxy-1-(1-methylpiperidin-4-yl)ethyl)-1,6-naphthyridin-7-yl)amino)-[1,1′-biphenyl]-3-carboxamide] | ++ (greater than 10-fold and less than or equal to 100-fold more active against CDK5 than CDK2) |
| 10 to 100 | < 10 | COC(=O)c1cnn(-c2ccc(Nc3cc4nc([C@](C)(O)C5CCN(C)CC5)ccc4cn3)c(F)c2)c1 [Compound 367, methyl 1-[3-fluoro-4-([2-[(1R)-1-hydroxy-1-(1-methylpiperidin-4-yl)ethyl]-1,6-naphthyridin-7-yl]amino)phenyl]pyrazole-4-carboxylate] | ++ (greater than 10-fold and less than or equal to 100-fold more active against CDK5 than CDK2) |
| 100 to 1000 | 10 to 100 | CC(C)N1CCC(S(=O)(=O)c2ccc3cnc(Nc4ccc(-n5cccn5)cc4F)cc3n2)CC1 [Compound 380] | ++ (greater than 10-fold and less than or equal to 100-fold more active against CDK5 than CDK2) |
| 100 to 1000 | < 10 | O=S(=O)(c1ccc2cnc(Nc3ccc(-n4cccn4)cc3F)cc2n1)C1CCN(CC2COC2)CC1 [Compound 332] | +++ (greater than 100-fold more active against CDK5 than CDK2) |
| 100 to 1000 | < 10 | CCN1CCC(S(=O)(=O)c2ccc3cnc(Nc4ccc(-n5cccn5)cc4F)cc3n2)CC1 [Compound 384] | +++ (greater than 100-fold more active against CDK5 than CDK2) |
| > 1000 | 100 to 1000 | CN1CCC(C(C)(O)c2ccc3cnc(Nc4ccc(-c5ccc(=O)n(C)c5)cc4F)cc3n2)CC1 (stereo not drawn) [Compound 346] | ++ (greater than 10-fold and less than or equal to 100-fold more active against CDK5 than CDK2) |
